From article PMC10807440, “Engineering Novosphingobium aromaticivorans to produce cis,cis-muconic acid from biomass aromatics” (Applied and Environmental Microbiology, 2023)

Experiments:
[1] = target: T1, NadCD (Novosphingobium aromaticivorans, UniProt A4XDW1); test: PCA to catechol conversion by LCMS; format: biochemical; settings: 1 mM PCA, 0.1 µM enzyme, crude prFMN-containing E. coli lysate needed, 50 mM HEPES, 150 mM NaCl pH 7.5, room temperature (18 h endpoint assay)
T1 construct: gene Saro_3877; Saro_3877-78 cloned together in pVP302K (8x His tag), expressed in E. coli B834 pRARE2, Ni-NTA purified; with protocatechuate decarboxylase subunit D (4-hydroxybenzoate decarboxylase subunit D-like)
T1 sequence (A4XDW1 1-486): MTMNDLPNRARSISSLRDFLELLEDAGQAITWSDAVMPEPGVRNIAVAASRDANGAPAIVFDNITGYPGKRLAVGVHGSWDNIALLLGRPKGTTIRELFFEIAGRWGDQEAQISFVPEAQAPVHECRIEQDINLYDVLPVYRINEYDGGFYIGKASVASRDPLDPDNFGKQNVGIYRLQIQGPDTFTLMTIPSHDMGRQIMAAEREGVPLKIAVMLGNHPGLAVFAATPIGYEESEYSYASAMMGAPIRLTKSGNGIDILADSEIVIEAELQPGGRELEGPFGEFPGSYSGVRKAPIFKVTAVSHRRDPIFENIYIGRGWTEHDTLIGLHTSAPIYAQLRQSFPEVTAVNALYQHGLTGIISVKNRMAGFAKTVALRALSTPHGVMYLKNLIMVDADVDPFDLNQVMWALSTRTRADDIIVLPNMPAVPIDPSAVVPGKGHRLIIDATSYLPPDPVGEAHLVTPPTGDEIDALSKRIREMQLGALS
T1 sequence (A4XDW2 1-74 partner): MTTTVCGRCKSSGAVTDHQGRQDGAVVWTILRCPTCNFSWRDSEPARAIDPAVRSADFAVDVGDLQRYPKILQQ

[2] = target: T2, NaCatA (Novosphingobium aromaticivorans, UniProt A4XFH8); test: ccMA formation by absorbance at […] nm; format: biochemical; settings: 100 µM catechol, 0.5 µM enzyme, 50 mM HEPES, 150 mM NaCl pH 7.5, 28°C; O2 co-substrate
T2 construct: gene Saro_3830; pVP302K (8x His tag), expressed in E. coli B834 pRARE2 with Fe(II)SO4, Ni-NTA purified
T2 sequence (A4XFH8 1-298): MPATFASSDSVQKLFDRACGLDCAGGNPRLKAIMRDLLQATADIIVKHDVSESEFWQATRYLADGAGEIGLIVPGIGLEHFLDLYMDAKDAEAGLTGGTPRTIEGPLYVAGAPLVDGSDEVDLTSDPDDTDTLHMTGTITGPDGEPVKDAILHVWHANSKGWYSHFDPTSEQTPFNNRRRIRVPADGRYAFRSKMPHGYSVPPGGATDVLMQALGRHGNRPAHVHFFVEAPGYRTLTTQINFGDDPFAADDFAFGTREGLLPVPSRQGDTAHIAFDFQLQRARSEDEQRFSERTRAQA

SMILES	PCA to catechol conversion by LCMS [1]	ccMA formation by absorbance at 260 nm [2]
O=C(O)c1ccc(O)c(O)c1 [PCA]	NadCD was mixed with PCA and with the crude E. coli lysate that contained prFMN	–
Oc1ccccc1O [catechol]	–	NaCatA catalyzes the intradiol cleavage of catechol to produce ccMA in vitro
